Publication PMC7394005, “Assessing the Selectivity of FXR, LXRs, CAR, and RORγ Pharmaceutical Ligands With Reporter Cell Lines” (Frontiers in Pharmacology, 2020)
Where two headings read alike, the source gives them in different places.

What was measured:
Format in all cases: cell-based
[1] = target: T1, human FXR (Homo sapiens, UniProt Q96RI1); experiment: HG5LN GAL4-FXR reporter cell line, antagonist mode in presence of GW4064; conditions: for FXR (GW4064 100 nM) % min act: in presence of GW4064 100 nM (80% of maximal activity), at 10^-5 M (10^-6 M *, 3 10^-6 M **)
T1 construct: FXR (R193-Q486); expressed in transfected cells; host or cells: HG5LN (HeLa cells carrying the (GAL4RE)5-βGlob-Luc-SVNeo reporter)
T1 sequence (Q96RI1 193-486): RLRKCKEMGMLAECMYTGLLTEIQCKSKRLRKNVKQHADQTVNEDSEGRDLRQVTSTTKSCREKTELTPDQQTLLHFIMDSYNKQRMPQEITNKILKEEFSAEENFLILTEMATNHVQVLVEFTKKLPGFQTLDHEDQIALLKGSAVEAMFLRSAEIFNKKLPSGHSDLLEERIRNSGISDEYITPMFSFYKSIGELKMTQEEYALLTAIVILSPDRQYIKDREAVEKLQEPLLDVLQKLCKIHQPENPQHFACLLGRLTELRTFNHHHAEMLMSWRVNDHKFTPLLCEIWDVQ
Source text: (§1) To construct GAL4-NR chimeras, individual LBDs of human FXR (R193-Q486), LXRα (A187-E447), LXRβ (G199-E461), CAR (M76-S348), and RORγ (S97-K518) were amplified by PCR with primers containing XhoI and SacI restriction sites (FXR), XhoI and BamHI (LXRs, CAR, RORγ) and inserted in pSG5-GAL4(DBD)-puromycin plasmid. To construct GAL4-CAR (+ APYLT) (M76-S353), the five amino acids APYLT were inserted by overlap extension PCR between amino acids P270 and D271 of CAR.
(§2) To characterize the specificity of chemicals for human FXR, LXRα, LXRβ, CAR and RORγ, we established in a similar manner HG5LN FXR, LXRα, LXRβ, CAR WT, CAR (APYLT) and RORγ reporter cell lines. […] These cells were stably transfected by pSG5-GAL4 (DBD)-NRs (LBD)-puromycin plasmid and selected in presence of 0.5 µg/ml puromycin. […] From each HG5LN NR cells, 5 to 10 clones were chosen for their ligand inducibility of luciferase expression. […] The most inducible clones were expanded and rechecked for inducibility and aliquots were frozen at different passages. One clone per receptor was maintained in culture and used for ligand screening. HG5LN cells were cultured in Dulbecco’s modified Eagle’s medium (DMEM): Nutrient Mixture F-12 (DMEM/F-12) containing phenol red and 1 g/l glucose and supplemented with 5% fetal bovine serum, 100 units/ml of penicillin, 100 µg/ml of streptomycin and 1 mg/ml geneticin, in 5% CO2 humidified atmosphere at 37°C. Stably transfected cell lines derived from HG5LN cells were cultured in the same culture medium supplemented with 0.5 µg/ml puromycin.
(§3) Individual reporter cell lines were seeded at a density of 40,000 cells per well in 96-well white opaque tissue culture plates (Greiner CellStar) in Dulbecco’s Modified Eagle Medium: Nutrient Mixture F-12 (DMEM/F-12) without phenol red and 1 g/l glucose and supplemented with 5% stripped fetal bovine serum, 100 units/ml of penicillin, 100 µg/ml of streptomycin (test medium). Chemicals to be tested were added 24h later, and cells were incubated at 37°C for 16h. Experiments were performed in quadruplicates. At the end of the incubation period, culture medium was replaced with test medium containing 0.3 mM luciferin solution. Luciferase activity was measured for 2s in intact living cells after 10 min stabilization using a Micro Beta Wallac luminometer (PerkinElmer). EC50 values were calculated using GraphPad Prism (GraphPad Software Inc).
(§4) Chemicals tested for agonism on FXR, LXRs, CAR (+ APYLT), PXR, and antagonism on CAR and RORγ were tested alone, without addition of any other ligand.
(§5) In the transactivation assay, each compound was tested at various concentrations in three independent experiments at least. For each experiment, tests were performed in quadruplicates for each concentration, and data are expressed by means values with standard deviations. Individual agonist dose–response curves, in the absence and presence of antagonist, were fitted using the sigmoid dose-response function of a graphics and statistics software program (GraphPad Prism, version 5.0). EC50 (effective concentration for half-maximal luciferase activity) and IC50 (half-maximal inhibitory concentration) values were calculated from equations used to fit the data in this graphic software. Transactivation data are presented as EC50 and IC50 values for each compound tested. To analyze significances, we compared individual compound treatments with controls using one-way analysis of variance (ANOVA) with the help of GraphPad Prism software.

[2] = target: T2, human LXRβ (Homo sapiens, UniProt P55055); experiment: HG5LN GAL4-LXRβ reporter cell line, antagonist mode in presence of T0901317; conditions: for LXRβ (T0901317 100 nM) % min act: in presence of T0901317 100 nM (80% of maximal activity), at 10^-5 M (10^-6 M *, 3 10^-6 M **)
T2 construct: LXRβ (G199-E461); expressed in transfected cells; host or cells: HG5LN (HeLa cells carrying the (GAL4RE)5-βGlob-Luc-SVNeo reporter)
T2 sequence (P55055 198-460 limits assumed): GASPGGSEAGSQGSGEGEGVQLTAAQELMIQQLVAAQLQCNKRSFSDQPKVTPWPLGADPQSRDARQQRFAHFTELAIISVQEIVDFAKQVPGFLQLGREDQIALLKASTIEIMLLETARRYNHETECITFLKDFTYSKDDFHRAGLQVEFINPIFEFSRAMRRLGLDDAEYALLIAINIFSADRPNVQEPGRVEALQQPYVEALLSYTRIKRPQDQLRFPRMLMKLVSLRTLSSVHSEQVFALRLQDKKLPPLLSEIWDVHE
Source text: as §1, §2, §3, §4, §5

[3] = target: T3, human LXRα (Homo sapiens, UniProt Q13133); experiment: HG5LN GAL4-LXRα reporter cell line, agonist mode; conditions: for LXRα % max act: maximal luciferase activity at 10^-5 M (10^-6 M for * and 3 10^-6 M for ** compounds), 100% = 1 µM T0901317, DMSO 8 ± 1
T3 construct: LXRα (A187-E447); expressed in transfected cells; host or cells: HG5LN (HeLa cells carrying the (GAL4RE)5-βGlob-Luc-SVNeo reporter)
T3 sequence (Q13133 187-447): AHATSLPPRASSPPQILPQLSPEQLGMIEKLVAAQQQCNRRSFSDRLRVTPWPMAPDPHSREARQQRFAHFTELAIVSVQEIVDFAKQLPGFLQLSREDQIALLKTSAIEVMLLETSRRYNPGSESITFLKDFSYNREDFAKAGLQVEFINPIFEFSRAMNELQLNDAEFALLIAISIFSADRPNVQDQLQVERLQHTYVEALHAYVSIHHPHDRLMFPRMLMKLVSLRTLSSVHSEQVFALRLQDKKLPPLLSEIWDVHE
Source text: as §1, §2, §3, §4, §5

[4] = read-out: FXR (GW4064 100 nM) IC50, in presence of GW4064 100 nM, NE = No effect
[5] = HG5LN GAL4-LXRα cells, tested alone, NE = No effect, read-out: LXRα EC50
[6] = read-out: LXRβ (T0901317 100 nM) IC50, in presence of T0901317 100 nM, NE = No effect

IC50 [1, 4] [µM]	EC50 [3, 5] [µM]	IC50 [2, 6] [µM]	Compound	also measured
> 10	–	–	Cc1cc(C)c(S(=O)(=O)N(CCc2cccc(Br)c2)Cc2ccc(-c3cccc(S(C)(=O)=O)c3)cc2)c(C)c1 [SR9243]	IC50 [2]: 0.059 ± 0.013 µM; LXRβ (T0901317 100 nM) % min act ([2]; NE = No effect): 2%
> 10	> 10	> 10	Cc1oc2ccccc2c1CNC(=O)NCc1cccs1 [S07662]	–
> 10	> 10	> 10	CCOC(=O)Nc1ccc2c(c1)N(C(=O)CN(CC)CC)c1ccccc1CC2 [CINPA1]	–
0.687 ± 0.103	> 10	> 10	COC(=O)/C=C/c1cccc(N(Cc2ccc(-c3ccc(N(C)C)cc3)cc2)C(=O)C2CCCCC2)c1 [Feraxamine]	FXR (GW4064 100 nM) % min act ([1]; NE = No effect): 33%
–	> 10	> 10	Clc1ccccc1C(c1ccccc1)(c1ccccc1)n1ccnc1 [Clotrimazole, clotrimazole]	–
–	0.176 ± 0.048	–	O=C(O)Cc1cccc(OCCCN(Cc2cccc(C(F)(F)F)c2Cl)CC(c2ccccc2)c2ccccc2)c1 [GW3965]	IC50 [1]: 5.8 ± 0.313 µM; FXR (GW4064 100 nM) % min act ([1]; NE = No effect): 25%; LXRα % max act ([3]; NE = No effect): 98%
–	> 10	> 10	CC(C)c1onc(-c2c(Cl)cccc2Cl)c1COc1ccc(/C=C/c2cccc(C(=O)O)c2)c(Cl)c1 [GW4064]	–
> 10	> 10	> 10	CC(C)(C)c1nc(-c2cccc(NS(=O)(=O)c3c(F)cccc3F)c2F)c(-c2ccnc(N)n2)s1 [Dabrafenib]	–
0.148 ± 0.068	> 10	> 10	COc1cccc(Cn2cc(C(=O)Nc3ccc(C)c(S(=O)(=O)N4CCOCC4)c3)c(-c3ccc(C)cc3)n2)c1 [DY268]	FXR (GW4064 100 nM) % min act ([1]; NE = No effect): 14%
> 10	> 10	> 10	CCOP(=O)(OCC)C(=Cc1cc(C(C)(C)C)c(O)c(C(C)(C)C)c1)P(=O)(OCC)OCC [SR12813]	–
> 10	> 10	> 10	CC(=O)Nc1nc(C)c(S(=O)(=O)Nc2ccc(C(O)(C(F)(F)F)C(F)(F)F)cc2)s1 [SR1001]	–
> 10	> 10	> 10	SPA70	–

Compound	IC50 [1, 4] [µM]	EC50 [3, 5] [µM]	IC50 [2, 6] [µM]	also measured
O=C(Nc1ccc(C(O)(C(F)(F)F)C(F)(F)F)cc1)c1ccccc1Cl [SR0987]	> 10	> 10	> 10	–
Fc1ccc(-c2c3cccc(C(F)(F)F)c3nn2Cc2ccc(F)cc2Cl)cc1 [WAY252623]	> 10	–	–	EC50 [3]: 0.595 ± 0.068 µM; LXRα % max act ([3]; NE = No effect): 67%
Clc1ccc(-c2nc3sccn3c2/C=N/OCc2ccc(Cl)c(Cl)c2)cc1 [CITCO]	> 10	> 10	> 10	–
CCOC(=O)c1ccc(CN(Cc2ccc(-c3cccc(S(C)(=O)=O)c3)cc2)S(=O)(=O)c2c(C)cc(C)cc2C)o1 [SR9238]	> 10	–	–	IC50 [2]: 0.005 ± 0.001 µM; LXR β-subtype specificity (fold, over α subtype) ([2]; from IC50 values on LXRα and LXRβ): 5 fold; LXRβ (T0901317 100 nM) % min act ([2]; NE = No effect): 1%
O=C(Nc1ccc(C(O)(C(F)(F)F)C(F)(F)F)cc1)c1ccc(C(F)(F)F)cc1 [SR1078]	> 10	> 10	> 10	–
Cc1cc(C)c(S(=O)(=O)N(Cc2ccc(-c3cccc(S(C)(=O)=O)c3)cc2)Cc2ccc(C(F)(F)F)o2)c(C)c1 [GSK2033]	> 10	–	–	IC50 [2]: 0.01 ± 0.003 µM; LXRβ (T0901317 100 nM) % min act ([2]; NE = No effect): 2%
